Reference: patent US20260053834A1, “COVALENT MODIFIERS OF AKT1 AND USES THEREOF” (Terremoto Biosciences, Inc., priority 2023, published 2026)

How the values were obtained:
[1] = test system: LAPC4 prostate cancer cells, which express the AKT1 E17K allele; assay: Antiproliferative effects in LAPC4 cells (CellTiter Glo, 72 h); assay type: cell-based; conditions: Homo sapiens, LAPC4, 72 h, read-out: LAPC4 proliferation IC50: GeoMean IC50
How it was run: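 Cells grown in IMDM with 12% FBS, seeded at 1,000 cells/well and treated with compound dilutions in DMSO for 72 h. Intracellular ATP read by luminescence. IC50 from a log(inhibitor) vs. response Hill fit.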

AKT1 E17K = target: T1, AKT1 E17K (Homo sapiens, UniProt P31749, E17K); assay: Live cell target engagement by NanoBRET competitive probe displacement, AKT1 E17K; assay type: binding; conditions: transfected HEK293 cells, 2 h at 37° C., read-out: AKT1 E17K IC50: GeoMean IC50
T1 construct: expressed in transfected cells; host or cells: HEK293

AKT1 WT = target: T2, AKT1 WT (Homo sapiens, UniProt P31749); assay: Live cell target engagement by NanoBRET competitive probe displacement, AKT1 WT; assay type: binding; conditions: transfected HEK293 cells, 2 h at 37° C., read-out: AKT1 WT IC50: GeoMean IC50
T2 construct: expressed in transfected cells; host or cells: HEK293

AKT2 = target: T3, AKT2 (Homo sapiens, UniProt P31751); assay: Live cell target engagement by NanoBRET competitive probe displacement, AKT2; assay type: binding; conditions: transfected HEK293 cells, 2 h at 37° C., read-out: AKT2 IC50: GeoMean IC50
T3 construct: expressed in transfected cells; host or cells: HEK293
T3 sequence (P31751 whole entry): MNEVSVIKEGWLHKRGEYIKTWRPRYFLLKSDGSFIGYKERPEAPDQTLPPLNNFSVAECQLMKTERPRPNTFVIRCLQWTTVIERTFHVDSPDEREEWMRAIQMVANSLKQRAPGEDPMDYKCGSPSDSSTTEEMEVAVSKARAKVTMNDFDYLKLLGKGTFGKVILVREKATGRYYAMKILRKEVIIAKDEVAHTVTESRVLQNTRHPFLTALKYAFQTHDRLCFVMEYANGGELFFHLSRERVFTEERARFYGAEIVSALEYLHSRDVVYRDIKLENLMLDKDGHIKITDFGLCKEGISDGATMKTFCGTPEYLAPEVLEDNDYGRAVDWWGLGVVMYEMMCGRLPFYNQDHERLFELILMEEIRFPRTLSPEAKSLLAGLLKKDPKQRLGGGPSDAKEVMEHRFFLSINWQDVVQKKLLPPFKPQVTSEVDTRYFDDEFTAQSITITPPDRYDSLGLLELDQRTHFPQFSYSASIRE

T2 sequence (P31749 whole entry): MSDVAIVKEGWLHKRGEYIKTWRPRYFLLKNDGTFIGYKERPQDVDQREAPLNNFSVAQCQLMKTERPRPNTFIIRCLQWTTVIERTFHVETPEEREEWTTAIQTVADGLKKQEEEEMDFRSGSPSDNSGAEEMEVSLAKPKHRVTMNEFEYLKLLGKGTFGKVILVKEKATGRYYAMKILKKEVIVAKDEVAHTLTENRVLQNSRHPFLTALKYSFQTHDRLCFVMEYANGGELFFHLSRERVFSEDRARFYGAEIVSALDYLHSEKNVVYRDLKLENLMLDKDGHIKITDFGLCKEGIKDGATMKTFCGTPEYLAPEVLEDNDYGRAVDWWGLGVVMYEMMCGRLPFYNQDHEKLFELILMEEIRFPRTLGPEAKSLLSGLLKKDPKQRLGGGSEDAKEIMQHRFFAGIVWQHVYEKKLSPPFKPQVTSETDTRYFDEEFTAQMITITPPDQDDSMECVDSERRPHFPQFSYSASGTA
T1 sequence (P31749 whole entry E17K): as the sequence (P31749 whole entry) above, with E17K counted along it

| Compound | IC50 [1] | IC50 (AKT1 E17K) | IC50 (AKT1 WT) | IC50 (AKT2) |
| --- | --- | --- | --- | --- |
| Nc1ncccc1-c1nc2c(OC(F)F)cc(-n3cccn3)nc2n1-c1ccc2c(c1)CC[C@@H]2NC(=O)c1ccc(O)c(C=O)c1 [Example 225, N-[(1S)-5-[2-(2-aminopyridin-3-yl)-7-(difluoromethoxy)-5-(pyrazol-1-yl)imidazo[4,5-b]pyridin-3-yl]-2,3-dihydro-1H-inden-1-yl]-3-formyl-4-hydroxybenzamide] | 10 to 100 nM | 10 to 100 nM | 10 to 100 nM | 100 to 2000 nM |
| Nc1ncccc1-c1nc2cc(O)c(-n3cccn3)nc2n1-c1ccc2c(c1)CC[C@@H]2NC(=O)c1cc(C=O)c(O)cc1F [Example 226, N-[(1S)-5-[2-(2-aminopyridin-3-yl)-6-hydroxy-5-(pyrazol-1-yl)imidazo[4,5-b]pyridin-3-yl]-2,3-dihydro-1H-inden-1-yl]-2-fluoro-5-formyl-4-hydroxybenzamide] | 10 to 100 nM | 10 to 100 nM | 10 to 100 nM | 100 to 2000 nM |
| Cc1cc(-n2nccn2)nc2c1nc(-c1cccnc1N)n2-c1ccc2c(c1)CC[C@@H]2NC(=O)c1cc(C=O)c(O)c(F)c1F [Example 227, N-[(1S)-5-[2-(2-aminopyridin-3-yl)-7-methyl-5-(1,2,3-triazol-2-yl)imidazo[4,5-b]pyridin-3-yl]-2,3-dihydro-1H-inden-1-yl]-2,3-difluoro-5-formyl-4-hydroxybenzamide] | 10 to 100 nM | 10 to 100 nM | 10 to 100 nM | 100 to 2000 nM |
| CN(C)c1cc(C(=O)N[C@H]2CCc3cc(-n4c(-c5cccnc5N)nc5ccc(-n6cccn6)nc54)ccc32)cc(C=O)c1O [Example 228, N-[(1S)-5-[2-(2-aminopyridin-3-yl)-5-(pyrazol-1-yl)imidazo[4,5-b]pyridin-3-yl]-2,3-dihydro-1H-inden-1-yl]-3-(dimethylamino)-5-formyl-4-hydroxybenzamide] | 100 to 2000 nM | 10 to 100 nM | 100 to 2000 nM | ≥ 2000 nM |
| Cc1cc2nc(-c3cccnc3N)n(-c3ccc4c(c3)CC[C@@H]4NC(=O)c3ccc(O)c(C=O)c3)c2nc1-n1cccn1 [Example 229, (S)—N-(5-(2-(2-aminopyridin-3-yl)-6-methyl-5-(1H-pyrazol-1-yl)-3H-imidazo[4,5-b]pyridin-3-yl)-2,3-dihydro-1H-inden-1-yl)-3-formyl-4-hydroxybenzamide] | 100 to 2000 nM | 10 to 100 nM | 100 to 2000 nM | 100 to 2000 nM |
| Nc1ncccc1-c1nc2c(C3CC3)cc(-n3cccn3)nc2n1-c1ccc2c(c1)CC[C@@H]2NC(=O)c1ccc(O)c(C=O)c1 [Example 230, N-[(1S)-5-[2-(2-aminopyridin-3-yl)-7-cyclopropyl-5-(pyrazol-1-yl)imidazo[4,5-b]pyridin-3-yl]-2,3-dihydro-1H-inden-1-yl]-3-formyl-4-hydroxybenzamide] | 100 to 2000 nM | 10 to 100 nM | 10 to 100 nM | 100 to 2000 nM |
| Nc1ncccc1-c1nc2c(N3CCC3)cc(-n3cccn3)nc2n1-c1ccc2c(c1)CC[C@@H]2NC(=O)c1ccc(O)c(C=O)c1 [Example 231, N-[(1S)-5-[2-(2-aminopyridin-3-yl)-7-(azetidin-1-yl)-5-(pyrazol-1-yl)imidazo[4,5-b]pyridin-3-yl]-2,3-dihydro-1H-inden-1-yl]-3-formyl-4-hydroxybenzamide] | 100 to 2000 nM | 10 to 100 nM | 10 to 100 nM | 100 to 2000 nM |
| CS(=O)(=O)Nc1cc(-n2cccn2)nc2c1nc(-c1cccnc1N)n2-c1ccc2c(c1)CC[C@@H]2NC(=O)c1ccc(O)c(C=O)c1 [Example 232, N-[(1S)-5-[2-(2-aminopyridin-3-yl)-7-methanesulfonamido-5-(pyrazol-1-yl)imidazo[4,5-b]pyridin-3-yl]-2,3-dihydro-1H-inden-1-yl]-3-formyl-4-hydroxybenzamide] | ≥ 2000 nM | ≥ 2000 nM | ≥ 2000 nM | ≥ 2000 nM |
| Nc1ncccc1-c1nc2c(-n3cn[nH]c3=O)cc(-n3cccn3)nc2n1-c1ccc2c(c1)CC[C@@H]2NC(=O)c1ccc(O)c(C=O)c1 [Example 233, N-[(1S)-5-[2-(2-aminopyridin-3-yl)-7-(3-oxo-2H-1,2,4-triazol-4-yl)-5-(pyrazol-1-yl)imidazo[4,5-b]pyridin-3-yl]-2,3-dihydro-1H-inden-1-yl]-3-formyl-4-hydroxybenzamide] | 100 to 2000 nM | 100 to 2000 nM | 100 to 2000 nM | 100 to 2000 nM |
| Cc1cc(-n2nccn2)nc2c1nc(-c1cccnc1N)n2-c1ccc2c(c1)CC[C@@H]2NC(=O)c1ccc(O)c(C=O)c1 [Example 234, N-[(1S)-5-[2-(2-aminopyridin-3-yl)-7-methyl-5-(1,2,3-triazol-2-yl)imidazo[4,5-b]pyridin-3-yl]-2,3-dihydro-1H-inden-1-yl]-3-formyl-4-hydroxybenzamide] | 10 to 100 nM | 10 to 100 nM | 10 to 100 nM | 100 to 2000 nM |
| [N-]=[N+]=Nc1cc(O)c(C=O)cc1C(=O)N[C@H]1CCc2cc(-n3c(-c4cccnc4N)nc4ccc(-n5cccn5)nc43)ccc21 [Example 235, N-[(1S)-5-[2-(2-aminopyridin-3-yl)-5-(pyrazol-1-yl)imidazo[4,5-b]pyridin-3-yl]-2,3-dihydro-1H-inden-1-yl]-2-azido-5-formyl-4-hydroxybenzamide] | 100 to 2000 nM | 10 to 100 nM | 100 to 2000 nM | 100 to 2000 nM |
| COc1cc(F)c(C(=O)N[C@H]2CCc3cc(-n4c(-c5cccnc5N)nc5ccc(-n6cccn6)nc54)ccc32)cc1C=O [Example 236, N-[(1S)-5-[2-(2-aminopyridin-3-yl)-5-(pyrazol-1-yl)imidazo[4,5-b]pyridin-3-yl]-2,3-dihydro-1H-inden-1-yl]-2-fluoro-5-formyl-4-methoxybenzamide] | 100 to 2000 nM | 10 to 100 nM | < 10 nM | 10 to 100 nM |
| Nc1cc(O)c(C=O)cc1C(=O)N[C@H]1CCc2cc(-n3c(-c4cccnc4N)nc4ccc(-n5cccn5)nc43)ccc21 [Example 237, 2-amino-N-[(1S)-5-[2-(2-aminopyridin-3-yl)-5-(pyrazol-1-yl)imidazo[4,5-b]pyridin-3-yl]-2,3-dihydro-1H-inden-1-yl]-5-formyl-4-hydroxybenzamide] | 100 to 2000 nM | 10 to 100 nM | 10 to 100 nM | 100 to 2000 nM |
| Nc1ncccc1-c1nc2ccc(-n3cccn3)nc2n1-c1ccc2c(c1)CC[C@@H]2n1c(=O)[nH]c2cc(O)c(C=O)cc2c1=O [Example 238, 3-[(1S)-5-[2-(2-aminopyridin-3-yl)-5-(pyrazol-1-yl)imidazo[4,5-b]pyridin-3-yl]-2,3-dihydro-1H-inden-1-yl]-7-hydroxy-2,4-dioxo-1H-quinazoline-6-carbaldehyde] | ≥ 2000 nM | 100 to 2000 nM | ≥ 2000 nM | ≥ 2000 nM |
| Nc1ncccc1-c1nc2ccc(-n3cccn3)nc2n1-c1ccc2c(c1)CC[C@@H]2NCc1cc(C=O)c(O)cc1F [Example 239, 5-({[(1S)-5-[2-(2-aminopyridin-3-yl)-5-(pyrazol-1-yl)imidazo[4,5-b]pyridin-3-yl]-2,3-dihydro-1H-inden-1-yl]amino}methyl)-4-fluoro-2-hydroxybenzaldehyde] | ≥ 2000 nM | 10 to 100 nM | 10 to 100 nM | 100 to 2000 nM |
| Nc1ncccc1-c1nc2ccc(-c3ccn(C4CC4)n3)nc2n1-c1ccc2c(c1)CC[C@@H]2NC(=O)c1cc(C=O)c(O)cc1F [Example 240, N-[(1S)-5-[2-(2-aminopyridin-3-yl)-5-(1-cyclopropylpyrazol-3-yl)imidazo[4,5-b]pyridin-3-yl]-2,3-dihydro-1H-inden-1-yl]-2-fluoro-5-formyl-4-hydroxybenzamide] | 10 to 100 nM | 10 to 100 nM | 10 to 100 nM | 100 to 2000 nM |
| Cn1ccc(-c2ccc3nc(-c4cccnc4N)n(-c4ccc5c(c4)CC[C@@H]5NC(=O)c4cc(C=O)c(O)cc4F)c3n2)n1 [Example 241, N-[(1S)-5-[2-(2-aminopyridin-3-yl)-5-(1-methylpyrazol-3-yl)imidazo[4,5-b]pyridin-3-yl]-2,3-dihydro-1H-inden-1-yl]-2-fluoro-5-formyl-4-hydroxybenzamide] | 10 to 100 nM | < 10 nM | 10 to 100 nM | 100 to 2000 nM |
| Nc1ncccc1-c1nc2ccc(-n3cccn3)nc2n1-c1ccc2c(c1)CC[C@@H]2NC(=O)c1cc(C=O)c(O)c2scnc12 [Example 242, (S)—N-(5-(2-(2-aminopyridin-3-yl)-5-(1H-pyrazol-1-yl)-3H-imidazo[4,5-b]pyridin-3-yl)-2,3-dihydro-1H-inden-1-yl)-6-formyl-7-hydroxybenzo[d]thiazole-4-carboxamide] | 100 to 2000 nM | 10 to 100 nM | 100 to 2000 nM | ≥ 2000 nM |
| Nc1ncccc1-c1nc2c(C(F)F)cc(-n3cccn3)nc2n1-c1ccc2c(c1)CC[C@@H]2NC(=O)c1ccc(O)c(C=O)c1 [Example 245, N-[(1S)-5-[2-(2-aminopyridin-3-yl)-7-(difluoromethyl)-5-(pyrazol-1-yl)imidazo[4,5-b]pyridin-3-yl]-2,3-dihydro-1H-inden-1-yl]-3-formyl-4-hydroxybenzamide] | 10 to 100 nM | < 10 nM | 10 to 100 nM | 100 to 2000 nM |
